Source: patent publication US12077503B2, “Substituted cyclic amides and their use as herbicides” (FMC CORPORATION, priority 2015, dated 2024)

Legend:
Format in all cases: in vivo
[1] = tested on: Kochia (Kochia scoparia); assay: Test A postemergence; conditions: Bassia scoparia, post-emergence, 240 h, postemergence, read-out: Kochia plant response rating; for pest or weed control at 125 g/ha: 125 g ai/ha, visual injury on 0 to 100 scale (0 no effect, 100 complete control), approx. 10 d; for pest or weed control at 500 g/ha: 500 g ai/ha, 0 to 100 scale, 0 is no effect, 100 is complete control
Outline: (§1)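 Compounds were formulated in a non-phytotoxic solvent mixture with surfactant and applied as a preemergence directed soil spray after seeding, or sprayed postemergence over plants 2 to 10 cm tall at the one- to two-leaf stage. Evaluation after about 10 d compared treated with untreated controls, using a scale from 0 (no effect) to 100 (complete control).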

[2] = tested on: corn (Zea mays); assay: Test A postemergence; conditions: Zea mays, post-emergence, 240 h, postemergence, read-out: Corn plant response rating; for plant injury at 125 g/ha: 125 g ai/ha, visual injury on 0 to 100 scale (0 no effect, 100 complete control), approx. 10 d; for plant injury at 500 g/ha: 500 g ai/ha, 0 to 100 scale, 0 is no effect, 100 is complete control
Outline: as §1

[3] = tested on: blackgrass (Alopecurus myosuroides); assay: Test A postemergence; conditions: Alopecurus myosuroides, post-emergence, 240 h, postemergence, read-out: Blackgrass plant response rating; for pest or weed control at 125 g/ha: 125 g ai/ha, visual injury on 0 to 100 scale (0 no effect, 100 complete control), approx. 10 d; for pest or weed control at 500 g/ha: 500 g ai/ha, 0 to 100 scale, 0 is no effect, 100 is complete control
Outline: as §1

[4] = tested on: giant foxtail (Setaria faberii); assay: Test A postemergence; conditions: Setaria faberi, post-emergence, 240 h, postemergence, read-out: Foxtail, Giant plant response rating; for pest or weed control at 125 g/ha: 125 g ai/ha, visual injury on 0 to 100 scale (0 no effect, 100 complete control), approx. 10 d; for pest or weed control at 500 g/ha: 500 g ai/ha, 0 to 100 scale, 0 is no effect, 100 is complete control
Outline: as §1

[5] = tested on: Galium (catchweed bedstraw, Galium aparine); assay: Test A postemergence; conditions: Galium, post-emergence, 240 h, postemergence, read-out: Galium plant response rating; for pest or weed control at 125 g/ha: 125 g ai/ha, visual injury on 0 to 100 scale (0 no effect, 100 complete control), approx. 10 d; for pest or weed control at 500 g/ha: 500 g ai/ha, 0 to 100 scale, 0 is no effect, 100 is complete control
Outline: as §1

[6] = tested on: wheat (Triticum aestivum); assay: Test A postemergence; conditions: Triticum aestivum, post-emergence, 240 h, postemergence, read-out: Wheat plant response rating; for plant injury at 125 g/ha: 125 g ai/ha, visual injury on 0 to 100 scale (0 no effect, 100 complete control), approx. 10 d; for plant injury at 500 g/ha: 500 g ai/ha, 0 to 100 scale, 0 is no effect, 100 is complete control
Outline: as §1

[7] = tested on: barnyardgrass (Echinochloa crus-galli); assay: Test A postemergence; conditions: Echinochloa crus-galli, post-emergence, 240 h, postemergence, read-out: Barnyardgrass plant response rating; for pest or weed control at 125 g/ha: 125 g ai/ha, visual injury on 0 to 100 scale (0 no effect, 100 complete control), approx. 10 d; for pest or weed control at 500 g/ha: 500 g ai/ha, 0 to 100 scale, 0 is no effect, 100 is complete control
Outline: as §1

[8] = tested on: ryegrass, Italian (Italian ryegrass, Lolium multiflorum); assay: Test A postemergence; conditions: Lolium multiflorum, post-emergence, 240 h, postemergence, read-out: Ryegrass, Italian plant response rating; for pest or weed control at 125 g/ha: 125 g ai/ha, visual injury on 0 to 100 scale (0 no effect, 100 complete control), approx. 10 d; for pest or weed control at 500 g/ha: 500 g ai/ha, 0 to 100 scale, 0 is no effect, 100 is complete control
Outline: as §1

[9] = tested on: pigweed (Amaranthus retroflexus); assay: Test A postemergence; conditions: Amaranthus retroflexus, post-emergence, 240 h, postemergence, read-out: Pigweed plant response rating; for pest or weed control at 125 g/ha: 125 g ai/ha, visual injury on 0 to 100 scale (0 no effect, 100 complete control), approx. 10 d; for pest or weed control at 500 g/ha: 500 g ai/ha, 0 to 100 scale, 0 is no effect, 100 is complete control
Outline: as §1

[10] = tested on: Kochia (Kochia scoparia); assay: Test A preemergence; conditions: Bassia scoparia, pre-emergence, 240 h, preemergence, read-out: Kochia plant response rating; for pest or weed control at 125 g/ha: 125 g ai/ha, 0 to 100 scale where 0 is no effect and 100 is complete control, approx. 10 d; for pest or weed control at 500 g/ha: 500 g ai/ha, visual injury rating about 10 d after treatment, 0 to 100 scale (0 no effect, 100 complete control)
Outline: as §1

[11] = tested on: giant foxtail (Setaria faberii); assay: Test A preemergence; conditions: Setaria faberi, pre-emergence, 240 h, preemergence, read-out: Foxtail, Giant plant response rating; for pest or weed control at 125 g/ha: 125 g ai/ha, 0 to 100 scale where 0 is no effect and 100 is complete control, approx. 10 d; for pest or weed control at 500 g/ha: 500 g ai/ha, visual injury rating about 10 d after treatment, 0 to 100 scale (0 no effect, 100 complete control)
Outline: as §1

[12] = tested on: ragweed (common ragweed, Ambrosia elatior); assay: Test A preemergence; conditions: Ambrosia artemisiifolia, pre-emergence, 240 h, preemergence, read-out: Ragweed plant response rating; for pest or weed control at 125 g/ha: 125 g ai/ha, 0 to 100 scale where 0 is no effect and 100 is complete control, approx. 10 d; for pest or weed control at 500 g/ha: 500 g ai/ha, visual injury rating about 10 d after treatment, 0 to 100 scale (0 no effect, 100 complete control)
Outline: as §1

[13] = tested on: barnyardgrass (Echinochloa crus-galli); assay: Test A preemergence; conditions: Echinochloa crus-galli, pre-emergence, 240 h, preemergence, read-out: Barnyardgrass plant response rating; for pest or weed control at 125 g/ha: 125 g ai/ha, 0 to 100 scale where 0 is no effect and 100 is complete control, approx. 10 d; for pest or weed control at 500 g/ha: 500 g ai/ha, visual injury rating about 10 d after treatment, 0 to 100 scale (0 no effect, 100 complete control)
Outline: as §1

[14] = tested on: ryegrass, Italian (Italian ryegrass, Lolium multiflorum); assay: Test A preemergence; conditions: Lolium multiflorum, pre-emergence, 240 h, preemergence, read-out: Ryegrass, Italian plant response rating; for pest or weed control at 125 g/ha: 125 g ai/ha, 0 to 100 scale where 0 is no effect and 100 is complete control, approx. 10 d; for pest or weed control at 500 g/ha: 500 g ai/ha, visual injury rating about 10 d after treatment, 0 to 100 scale (0 no effect, 100 complete control)
Outline: as §1

[15] = tested on: pigweed (Amaranthus retroflexus); assay: Test A preemergence; conditions: Amaranthus retroflexus, pre-emergence, 240 h, preemergence, read-out: Pigweed plant response rating; for pest or weed control at 125 g/ha: 125 g ai/ha, 0 to 100 scale where 0 is no effect and 100 is complete control, approx. 10 d; for pest or weed control at 500 g/ha: 500 g ai/ha, visual injury rating about 10 d after treatment, 0 to 100 scale (0 no effect, 100 complete control)

`CN1C[C@H](c2cc(F)cc(F)c2)[C@@H](C(=O)Nc2ncccc2Cl)C1=O` [Compound 1097] was tested, and the pest or weed control at 125 g/ha [1] was 0%, the pest or weed control at 500 g/ha [1] was 0% and the plant injury at 125 g/ha [2] was 0%. For the same molecule, the plant injury at 500 g/ha [2] was 0%, the pest or weed control at 125 g/ha [3] was 0% and the pest or weed control at 500 g/ha [3] was 0%. For the same molecule, the pest or weed control at 125 g/ha [4] was 0%, the pest or weed control at 500 g/ha [4] was 0% and the pest or weed control at 125 g/ha [5] was 0%. It also gave a pest or weed control at 500 g/ha [5] of 0%, a plant injury at 125 g/ha [6] of 0% and a plant injury at 500 g/ha [6] of 0%. For the same molecule, the pest or weed control at 125 g/ha [7] was 0%, the pest or weed control at 500 g/ha [7] was 0% and the pest or weed control at 125 g/ha [8] was 0%. The pest or weed control at 500 g/ha [8] was 0%, the pest or weed control at 125 g/ha [9] was 0% and the pest or weed control at 500 g/ha [9] was 0%. The pest or weed control at 125 g/ha [10] was 0%, the pest or weed control at 500 g/ha [10] was 0% and the pest or weed control at 125 g/ha [11] was 0%. It also gave a pest or weed control at 500 g/ha [11] of 0%, a pest or weed control at 125 g/ha [12] of 0% and a pest or weed control at 500 g/ha [12] of 0%. The pest or weed control at 125 g/ha [13] was 0%, the pest or weed control at 500 g/ha [13] was 0% and the pest or weed control at 125 g/ha [14] was 0%. It also gave a pest or weed control at 500 g/ha [14] of 0%, a pest or weed control at 125 g/ha [15] of 0% and a pest or weed control at 500 g/ha [15] of 0%.
`Cc1cc([C@H]2CN(C)C(=O)[C@@H]2C(=O)Nc2ccccc2F)ccc1Br` [Compound 1098] gave a pest or weed control at 125 g/ha [1] of 20%, a pest or weed control at 500 g/ha [1] of 60% and a plant injury at 125 g/ha [2] of 0%. The plant injury at 500 g/ha [2] was 70%, the pest or weed control at 125 g/ha [3] was 20% and the pest or weed control at 500 g/ha [3] was 30%. For the same molecule, the pest or weed control at 125 g/ha [4] was 80%, the pest or weed control at 500 g/ha [4] was 90% and the pest or weed control at 125 g/ha [5] was 30%. For the same molecule, the pest or weed control at 500 g/ha [5] was 40%, the plant injury at 125 g/ha [6] was 0% and the plant injury at 500 g/ha [6] was 50%. The pest or weed control at 125 g/ha [7] was 80%, the pest or weed control at 500 g/ha [7] was 90% and the pest or weed control at 125 g/ha [8] was 40%. It also gave a pest or weed control at 500 g/ha [8] of 50%, a pest or weed control at 125 g/ha [9] of 0% and a pest or weed control at 500 g/ha [9] of 0%. The pest or weed control at 125 g/ha [10] was 20%, the pest or weed control at 500 g/ha [10] was 70% and the pest or weed control at 125 g/ha [11] was 90%. For the same molecule, the pest or weed control at 500 g/ha [11] was 90%, the pest or weed control at 125 g/ha [12] was 0% and the pest or weed control at 500 g/ha [12] was 0%. The pest or weed control at 125 g/ha [13] was 90%, the pest or weed control at 500 g/ha [13] was 90% and the pest or weed control at 125 g/ha [14] was 20%. It also gave a pest or weed control at 500 g/ha [14] of 50%, a pest or weed control at 125 g/ha [15] of 0% and a pest or weed control at 500 g/ha [15] of 0%.
For `Cc1cc([C@H]2CN(C)C(=O)[C@@H]2C(=O)Nc2cccc(F)c2F)ccc1Br` [Compound 1099], the pest or weed control at 125 g/ha [1] was 30%, the pest or weed control at 500 g/ha [1] was 60% and the plant injury at 125 g/ha [2] was 50%. The plant injury at 500 g/ha [2] was 60%, the pest or weed control at 125 g/ha [3] was 20% and the pest or weed control at 500 g/ha [3] was 40%. For the same molecule, the pest or weed control at 125 g/ha [4] was 80%, the pest or weed control at 500 g/ha [4] was 80% and the pest or weed control at 125 g/ha [5] was 50%. It also gave a pest or weed control at 500 g/ha [5] of 60%, a plant injury at 125 g/ha [6] of 20% and a plant injury at 500 g/ha [6] of 50%. It also gave a pest or weed control at 125 g/ha [7] of 70%, a pest or weed control at 500 g/ha [7] of 80% and a pest or weed control at 125 g/ha [8] of 40%. The pest or weed control at 500 g/ha [8] was 60%, the pest or weed control at 125 g/ha [9] was 20% and the pest or weed control at 500 g/ha [9] was 50%. The pest or weed control at 125 g/ha [10] was 60%, the pest or weed control at 500 g/ha [10] was 70% and the pest or weed control at 125 g/ha [11] was 90%. For the same molecule, the pest or weed control at 500 g/ha [11] was 90%, the pest or weed control at 125 g/ha [12] was 20% and the pest or weed control at 500 g/ha [12] was 60%. It also gave a pest or weed control at 125 g/ha [13] of 90%, a pest or weed control at 500 g/ha [13] of 90% and a pest or weed control at 125 g/ha [14] of 50%. The pest or weed control at 500 g/ha [14] was 70%, the pest or weed control at 125 g/ha [15] was 0% and the pest or weed control at 500 g/ha [15] was 30%.
